Measured values: ChEMBL document CHEMBL4507263, “Data for DCP probe BAY-474” (2021)

Assays:
[1] = biological target: Serine/threonine-protein kinase D2 (Homo sapiens) (UniProt Q9BZL6); experiment: PKD2 (h) Millipore kinase activity assay; conditions: Compound concentration 1.0 uM
[2] = biological target: Adenosine receptor A2a (Homo sapiens) (UniProt P29274); conditions: Compound concentration 10.0 uM
[3] = biological target: MAP kinase-activated protein kinase 2 (Homo sapiens) (UniProt P49137); experiment: MAPKAP-K2 (h) Millipore kinase activity assay; conditions: Compound concentration 1.0 uM
[4] = biological target: D(3) dopamine receptor (Homo sapiens) (UniProt P35462); conditions: Compound concentration 10.0 uM
[5] = biological target: T1, Muscarinic acetylcholine receptor M2 (Homo sapiens) (UniProt P08172); conditions: Compound concentration 10.0 uM
T1 sequence (whole entry): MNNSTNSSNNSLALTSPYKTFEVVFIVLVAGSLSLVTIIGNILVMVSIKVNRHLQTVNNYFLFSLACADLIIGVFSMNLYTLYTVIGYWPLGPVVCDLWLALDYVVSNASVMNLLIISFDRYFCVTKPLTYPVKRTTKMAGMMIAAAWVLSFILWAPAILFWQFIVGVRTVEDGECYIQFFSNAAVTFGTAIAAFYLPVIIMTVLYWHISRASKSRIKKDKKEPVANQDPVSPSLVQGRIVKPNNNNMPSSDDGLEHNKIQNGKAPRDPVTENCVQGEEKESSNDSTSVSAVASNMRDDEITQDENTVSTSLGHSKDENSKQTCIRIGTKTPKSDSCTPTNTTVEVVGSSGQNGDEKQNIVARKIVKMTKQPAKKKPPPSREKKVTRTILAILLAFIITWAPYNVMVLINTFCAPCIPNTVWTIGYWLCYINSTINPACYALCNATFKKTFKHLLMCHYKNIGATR

[6] = biological target: Platelet-derived growth factor receptor alpha (Homo sapiens) (UniProt P16234); experiment: PDGFRalpha (h) Millipore kinase activity assay; conditions: Compound concentration 1.0 uM
Sequence of Platelet-derived growth factor receptor alpha (Homo sapiens) (P16234 whole entry): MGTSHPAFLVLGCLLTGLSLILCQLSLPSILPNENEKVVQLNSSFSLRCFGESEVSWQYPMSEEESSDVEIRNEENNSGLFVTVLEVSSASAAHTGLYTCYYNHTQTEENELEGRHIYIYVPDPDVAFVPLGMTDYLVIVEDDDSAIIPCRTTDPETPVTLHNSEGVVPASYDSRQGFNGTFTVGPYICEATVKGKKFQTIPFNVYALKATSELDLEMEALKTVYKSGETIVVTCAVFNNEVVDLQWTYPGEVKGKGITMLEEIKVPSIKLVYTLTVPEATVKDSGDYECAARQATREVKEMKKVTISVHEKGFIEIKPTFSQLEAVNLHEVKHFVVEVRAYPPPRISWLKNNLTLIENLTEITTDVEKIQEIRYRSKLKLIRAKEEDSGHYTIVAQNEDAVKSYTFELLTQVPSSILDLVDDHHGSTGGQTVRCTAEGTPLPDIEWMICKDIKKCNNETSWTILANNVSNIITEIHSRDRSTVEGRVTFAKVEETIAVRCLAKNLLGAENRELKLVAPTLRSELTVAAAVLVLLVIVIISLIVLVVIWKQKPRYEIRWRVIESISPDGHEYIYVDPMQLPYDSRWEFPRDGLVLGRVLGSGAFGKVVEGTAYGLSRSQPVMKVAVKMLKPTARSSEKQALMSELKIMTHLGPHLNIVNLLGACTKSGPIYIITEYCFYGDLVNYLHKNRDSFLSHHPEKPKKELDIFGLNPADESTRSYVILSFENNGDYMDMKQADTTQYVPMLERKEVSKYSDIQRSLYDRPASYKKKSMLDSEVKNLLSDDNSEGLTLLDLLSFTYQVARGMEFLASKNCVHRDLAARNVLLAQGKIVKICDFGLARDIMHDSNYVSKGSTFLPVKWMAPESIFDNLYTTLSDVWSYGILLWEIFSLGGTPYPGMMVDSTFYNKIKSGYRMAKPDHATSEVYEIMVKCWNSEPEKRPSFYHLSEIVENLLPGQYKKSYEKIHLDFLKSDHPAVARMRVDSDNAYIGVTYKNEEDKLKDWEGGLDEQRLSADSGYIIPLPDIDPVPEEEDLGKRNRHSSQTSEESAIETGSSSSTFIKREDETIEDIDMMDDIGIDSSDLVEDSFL

[7] = biological target: GABA-A receptor; anion channel (Rattus norvegicus) (UniProt O09028+P15431+P18506+P18508+P19969+P20236+P23574+P23576+P28471+P28473+P30191+P62813+P63079+P63138+Q91ZM7+Q9ES14); conditions: Compound concentration 10.0 uM
[8] = biological target: Protein-tyrosine kinase 6 (Homo sapiens) (UniProt Q13882); conditions: Compound concentration 1000.0 nM
[9] = biological target: Calcium-dependent protein kinase 1 (Plasmodium falciparum) (UniProt P62344); conditions: Compound concentration 1000.0 nM
Sequence of Calcium-dependent protein kinase 1 (Plasmodium falciparum) (P62344 2-524 limits assumed): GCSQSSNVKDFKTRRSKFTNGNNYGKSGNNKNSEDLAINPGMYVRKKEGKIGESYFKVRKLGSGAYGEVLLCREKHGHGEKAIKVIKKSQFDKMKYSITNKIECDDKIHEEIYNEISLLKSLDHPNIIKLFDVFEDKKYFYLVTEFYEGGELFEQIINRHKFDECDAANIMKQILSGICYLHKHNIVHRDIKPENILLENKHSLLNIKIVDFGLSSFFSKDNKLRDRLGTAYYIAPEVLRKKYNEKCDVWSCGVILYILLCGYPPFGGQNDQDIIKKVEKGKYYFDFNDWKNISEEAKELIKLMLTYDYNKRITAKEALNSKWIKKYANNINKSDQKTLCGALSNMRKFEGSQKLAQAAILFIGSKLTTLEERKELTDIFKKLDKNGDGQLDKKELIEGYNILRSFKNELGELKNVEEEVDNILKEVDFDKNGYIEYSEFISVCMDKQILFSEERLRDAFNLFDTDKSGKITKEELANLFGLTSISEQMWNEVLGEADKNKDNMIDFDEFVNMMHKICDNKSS

[10] = biological target: Serine/threonine-protein kinase D2 (Homo sapiens) (UniProt Q9BZL6); conditions: Compound concentration 1000.0 nM
[11] = biological target: 5'-AMP-activated protein kinase catalytic subunit alpha-2 (Homo sapiens) (UniProt P54646); conditions: Compound concentration 1000.0 nM
[12] = biological target: Cyclin-dependent kinase 2 (Homo sapiens) (UniProt P24941); conditions: Compound concentration 1000.0 nM
[13] = test system: ALK tyrosine kinase receptor (Homo sapiens), Q9UM73 [L1196M]; conditions: Compound concentration 1000.0 nM
[14] = biological target: Dual specificity mitogen-activated protein kinase kinase 2 (Homo sapiens) (UniProt P36507); conditions: Compound concentration 1000.0 nM
Sequence of Dual specificity mitogen-activated protein kinase kinase 2 (Homo sapiens) (P36507 whole entry): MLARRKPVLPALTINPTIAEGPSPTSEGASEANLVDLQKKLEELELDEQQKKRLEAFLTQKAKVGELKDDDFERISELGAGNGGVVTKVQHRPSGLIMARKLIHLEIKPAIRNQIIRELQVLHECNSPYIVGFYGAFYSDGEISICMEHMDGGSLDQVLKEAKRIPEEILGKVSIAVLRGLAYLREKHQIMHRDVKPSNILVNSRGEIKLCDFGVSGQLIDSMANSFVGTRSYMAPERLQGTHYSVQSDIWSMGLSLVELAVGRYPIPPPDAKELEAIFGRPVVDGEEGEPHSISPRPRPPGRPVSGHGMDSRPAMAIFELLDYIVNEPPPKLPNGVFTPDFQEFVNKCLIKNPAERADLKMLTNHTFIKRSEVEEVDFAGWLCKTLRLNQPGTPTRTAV

[15] = biological target: Dual serine/threonine and tyrosine protein kinase (Homo sapiens) (UniProt Q6XUX3); conditions: Compound concentration 1000.0 nM
[16] = biological target: Tyrosine-protein kinase Fes/Fps (Homo sapiens) (UniProt P07332); conditions: Compound concentration 1000.0 nM
[17] = biological target: Protein kinase C iota type (Homo sapiens) (UniProt P41743); conditions: Compound concentration 1000.0 nM
[18] = biological target: Membrane-associated tyrosine- and threonine-specific cdc2-inhibitory kinase (Homo sapiens) (UniProt Q99640); conditions: Compound concentration 1000.0 nM
[19] = biological target: Cyclin-dependent kinase-like 2 (Homo sapiens) (UniProt Q92772); conditions: Compound concentration 1000.0 nM
[20] = biological target: Mast/stem cell growth factor receptor Kit (Homo sapiens) (UniProt P10721); conditions: Compound concentration 1000.0 nM
[21] = biological target: Insulin receptor-related protein (Homo sapiens) (UniProt P14616); conditions: Compound concentration 1000.0 nM
[22] = biological target: Interferon-induced, double-stranded RNA-activated protein kinase (Homo sapiens) (UniProt P19525); conditions: Compound concentration 1000.0 nM
[23] = biological target: Myosin-IIIa (Homo sapiens) (UniProt Q8NEV4); conditions: Compound concentration 1000.0 nM
Sequence of Myosin-IIIa (Homo sapiens) (Q8NEV4 whole entry): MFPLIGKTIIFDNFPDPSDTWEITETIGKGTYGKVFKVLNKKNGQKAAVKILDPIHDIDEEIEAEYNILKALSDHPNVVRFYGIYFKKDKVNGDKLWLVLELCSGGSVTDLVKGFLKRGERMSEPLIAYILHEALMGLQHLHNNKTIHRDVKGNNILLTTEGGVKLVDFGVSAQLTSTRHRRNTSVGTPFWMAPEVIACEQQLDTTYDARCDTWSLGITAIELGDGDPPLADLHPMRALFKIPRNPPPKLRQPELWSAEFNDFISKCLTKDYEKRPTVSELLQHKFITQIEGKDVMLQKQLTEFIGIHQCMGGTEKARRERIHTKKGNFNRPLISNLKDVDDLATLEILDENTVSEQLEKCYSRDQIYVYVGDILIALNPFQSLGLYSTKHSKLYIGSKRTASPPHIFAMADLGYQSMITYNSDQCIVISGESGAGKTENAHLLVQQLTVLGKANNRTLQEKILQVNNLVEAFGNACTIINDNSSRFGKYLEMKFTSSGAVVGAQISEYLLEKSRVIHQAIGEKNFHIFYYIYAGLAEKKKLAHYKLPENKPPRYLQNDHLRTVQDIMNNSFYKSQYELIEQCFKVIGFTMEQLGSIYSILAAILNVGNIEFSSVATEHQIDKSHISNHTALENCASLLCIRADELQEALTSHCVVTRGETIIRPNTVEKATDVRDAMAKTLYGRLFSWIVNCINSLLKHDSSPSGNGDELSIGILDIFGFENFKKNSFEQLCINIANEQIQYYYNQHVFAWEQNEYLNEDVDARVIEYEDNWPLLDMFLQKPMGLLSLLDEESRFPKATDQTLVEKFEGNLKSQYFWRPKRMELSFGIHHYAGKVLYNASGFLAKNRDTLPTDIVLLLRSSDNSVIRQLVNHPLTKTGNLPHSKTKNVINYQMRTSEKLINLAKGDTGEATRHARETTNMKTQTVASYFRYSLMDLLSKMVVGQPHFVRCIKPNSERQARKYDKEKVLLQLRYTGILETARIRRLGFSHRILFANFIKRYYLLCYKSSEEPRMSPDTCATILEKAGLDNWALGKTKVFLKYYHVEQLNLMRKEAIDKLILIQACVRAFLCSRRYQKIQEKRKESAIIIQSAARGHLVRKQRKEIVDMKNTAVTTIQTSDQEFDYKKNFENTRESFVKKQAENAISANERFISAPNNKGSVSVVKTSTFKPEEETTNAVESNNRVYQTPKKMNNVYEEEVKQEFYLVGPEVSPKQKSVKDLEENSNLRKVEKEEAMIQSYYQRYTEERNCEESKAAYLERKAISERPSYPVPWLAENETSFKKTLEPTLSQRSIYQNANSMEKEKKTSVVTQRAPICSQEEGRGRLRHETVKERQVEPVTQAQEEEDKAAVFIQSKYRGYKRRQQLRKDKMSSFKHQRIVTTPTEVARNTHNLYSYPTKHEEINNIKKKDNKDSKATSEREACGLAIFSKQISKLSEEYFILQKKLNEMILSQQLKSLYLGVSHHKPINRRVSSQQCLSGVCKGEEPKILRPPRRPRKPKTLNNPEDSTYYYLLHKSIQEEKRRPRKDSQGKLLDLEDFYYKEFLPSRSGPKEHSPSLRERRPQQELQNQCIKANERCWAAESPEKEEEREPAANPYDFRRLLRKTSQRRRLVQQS

[24] = biological target: Rhodopsin kinase GRK1 (Homo sapiens) (UniProt Q15835); conditions: Compound concentration 1000.0 nM
[25] = biological target: Discoidin domain-containing receptor 2 (Homo sapiens) (UniProt Q16832); conditions: Compound concentration 1000.0 nM
[26] = biological target: Serine/threonine-protein kinase SIK2 (Homo sapiens) (UniProt Q9H0K1); conditions: Compound concentration 1000.0 nM
[27] = test system: Mast/stem cell growth factor receptor Kit (Homo sapiens), P10721 [A829P]; conditions: Compound concentration 1000.0 nM
[28] = biological target: Mitogen-activated protein kinase 9 (Homo sapiens) (UniProt P45984); conditions: Compound concentration 1000.0 nM
[29] = test system: ALK tyrosine kinase receptor (Homo sapiens), Q9UM73 [C1156Y]; conditions: Compound concentration 1000.0 nM

Sequence of Serine/threonine-protein kinase D2 (Homo sapiens) (Q9BZL6 whole entry): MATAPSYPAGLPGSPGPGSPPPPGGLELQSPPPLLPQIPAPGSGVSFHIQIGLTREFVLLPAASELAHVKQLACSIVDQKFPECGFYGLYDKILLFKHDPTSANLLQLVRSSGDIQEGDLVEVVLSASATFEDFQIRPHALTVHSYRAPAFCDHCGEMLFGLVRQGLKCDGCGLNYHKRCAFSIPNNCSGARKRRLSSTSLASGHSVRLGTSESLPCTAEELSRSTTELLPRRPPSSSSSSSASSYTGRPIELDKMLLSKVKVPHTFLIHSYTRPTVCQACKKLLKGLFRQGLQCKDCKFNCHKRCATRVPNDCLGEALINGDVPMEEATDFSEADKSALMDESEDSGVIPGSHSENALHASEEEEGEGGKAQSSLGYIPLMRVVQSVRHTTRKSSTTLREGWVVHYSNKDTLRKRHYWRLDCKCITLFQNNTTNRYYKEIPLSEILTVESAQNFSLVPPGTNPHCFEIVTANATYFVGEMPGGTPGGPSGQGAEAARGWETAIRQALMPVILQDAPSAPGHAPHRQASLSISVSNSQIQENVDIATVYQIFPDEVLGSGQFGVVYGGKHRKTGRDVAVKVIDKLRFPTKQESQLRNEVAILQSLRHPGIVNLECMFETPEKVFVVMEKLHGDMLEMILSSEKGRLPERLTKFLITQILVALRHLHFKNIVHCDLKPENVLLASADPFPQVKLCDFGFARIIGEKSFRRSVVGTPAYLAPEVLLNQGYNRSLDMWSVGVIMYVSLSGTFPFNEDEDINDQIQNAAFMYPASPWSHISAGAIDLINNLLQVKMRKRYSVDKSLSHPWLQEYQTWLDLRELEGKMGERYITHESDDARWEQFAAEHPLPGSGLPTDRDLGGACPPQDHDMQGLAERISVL
Sequence of Adenosine receptor A2a (Homo sapiens) (P29274 whole entry): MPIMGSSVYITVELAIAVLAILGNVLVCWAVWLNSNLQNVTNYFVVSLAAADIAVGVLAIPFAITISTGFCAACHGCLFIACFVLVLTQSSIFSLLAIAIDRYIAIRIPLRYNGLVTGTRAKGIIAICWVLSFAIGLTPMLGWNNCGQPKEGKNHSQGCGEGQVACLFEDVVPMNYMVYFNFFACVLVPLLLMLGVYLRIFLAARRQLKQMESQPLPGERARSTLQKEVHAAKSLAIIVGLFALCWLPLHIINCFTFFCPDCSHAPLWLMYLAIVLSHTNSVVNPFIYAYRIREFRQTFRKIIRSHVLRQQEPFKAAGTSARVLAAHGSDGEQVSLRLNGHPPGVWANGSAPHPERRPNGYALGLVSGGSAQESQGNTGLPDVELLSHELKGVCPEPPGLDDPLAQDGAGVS

CC1=C(C#N)C(c2ccc3[nH]nc(C)c3c2)C(C#N)=C(C)N1 [BAY-474]
inactive: inhibition [1] 3% | inhibition [2] 7% | inhibition [3] -2% | inhibition [4] 18.1% | inhibition [5] 0% | inhibition [6] -2% | inhibition [7] -2%

CC1=C(C#N)[C@@H](c2ccc3[nH]nc(C)c3c2)C(C#N)=C(c2ccc(Cl)cc2)N1 [BAY-827]
inactive: residual activity [8] 100% | residual activity [9] 100% | residual activity [10] 100% | residual activity [11] 95.3% | residual activity [12] 100% | residual activity [13] 100% | residual activity [14] 100% | residual activity [15] 100% | residual activity [16] 100% | residual activity [17] 99.4% | residual activity [18] 100% | residual activity [19] 97.9% | residual activity [20] 95.4% | residual activity [21] 100% | residual activity [22] 74.1% | residual activity [23] 100% | residual activity [24] 65.5% | residual activity [25] 99.4% | residual activity [26] 100% | residual activity [27] 100% | residual activity [28] 89.5% | residual activity [29] 100%
